As a reminder, the IC50 is the concentration that inhibits the measured activity by half.

In the test the target is T1, chicken gizzard smooth muscle myosin subfragment-1 chemically crosslinked to either cardiac or skeletal actin (Gallus gallus, UniProt P10587).
T1 construct: chicken gizzard smooth muscle myosin subfragment-1; from tissue; host or cells: chicken gizzard
The test can be described thus: Dose dependent smooth muscle myosin ATPase modulation (pyruvate kinase/horseradish peroxidase/pyruvate oxidase-coupled ATPase assay). The format is biochemical. The conditions noted are these: read-out: IC50 Arithmetic Mean. The procedure: In Vitro Model of Dose Dependent Smooth Muscle Myosin Atpase Modulation
Screening assays were performed using a pyruvate kinase and lactate dehydrogenase-coupled ATPase assay containing the following reagents: Potassium PIPES (50 mM ), MgCl2 (3 mM ), KCl (100 mM ), ATP (0.15 mM ), DTT (1 mM ), BSA (0.1 mg/ml), NADH (0.5 mM ), PEP (1.5 mM ), pyruvate kinase (4 U/ml), lactate dehydrogenase (8 U/ml), and antifoam (50 ppm) (concentrations expressed are final assay concentrations). The pH was adjusted to 6.80 at 22° C. by addition of potassium hydroxide. Lead optimization assays were performed with a more sensitive pyruvate kinase/horseradish peroxidase/pyruvate oxidase-coupled ATPase assay containing the following reagents: Potassium PIPES (12 mM ), MgCl2 (2 mM ), KCl (100 mM ), ATP (0.15 mM ), BSA (0.05 mg/ml), potassium phosphate (2 mM ), amplex red (0.1 mM ), PEP (0.1 mM ), pyruvate kinase (4 U/ml), horseradish peroxidase (0.5 U/ml), pyruvate oxidase (0.5 U/ml), and antifoam (50 ppm) (concentrations expressed are final assay concentrations). The pH was adjusted to 7.00 at 22° C. by addition of potassium hydroxide.
The protein components specific to this assay are chicken gizzard smooth muscle myosin subfragment-1 that has been chemically crosslinked to either cardiac or skeletal actin using an excess of 1-Ethyl-3-[3-dimethylaminopropyl]carbodiimide hydrochloride and N-hydroxysuccinimide. The exact concentration of the crosslinked smooth muscle myosin in the assay is determined empirically, by titration to achieve a desired rate of ATP hydrolysis. The concentration varies between protein preparations due to variations in the fraction of active molecules in each preparation.
Compound dose response assays are performed by first preparing a dilution series of test compound, each with an assay mixture containing potassium PIPES, MgCl2, KCl, ATP, BSA, potassium phosphate, amplex red, PEP, crosslinked smooth muscle actomyosin (subfragment-1), antifoam, and water. The assay is started by adding an equal volume of solution containing potassium Pipes, MgCl2, KCl, BSA, potassium phosphate, pyruvate kinase, horseradish peroxidase, pyruvate oxidase, antifoam, and water. ATP hydrolysis is monitored by measuring the fluorescence of amplex red (excitation at 480 nm, emission at 615 nm). The resulting dose response curve is fit by the 4 parameter equation y=Bottom+((Top−Bottom)/(1+((IC50/X)^Hill))). The IC50 is defined as the concentration at which ATPase activity is midway between the top and bottom of the dose response curve.
For `O=C(NCc1cccnc1)c1ccc(N2CCCC2=O)nc1NCCc1cccc(F)c1` [Compound 15, (2-{[2-(3-fluorophenyl)ethyl]amino}-6-(2-oxopyrrolidinyl)(3-pyridyl))-N-(3-pyridylmethyl)carboxamide], the half-inhibitory concentration (IC50) was found to be 4560 nM.

As for `O=C(NCc1cccnc1)c1ccc(N2CCC(F)(F)C2)nc1NCCc1cccc(F)c1` [Compound 100, (6-(3,3-difluoropyrrolidinyl)-2-{[2-(3-fluorophenyl)ethyl]amino}(3-pyridyl))-N-(3-pyridylmethyl)carboxamide], the IC50 worked out at 274 nM.

For `O=C(NCc1cccnc1)c1cc(Cl)c(N2CCCC2)nc1NCCc1cccc(F)c1` [Compound 48, (5-chloro-2-{[2-(3-fluorophenyl)ethyl]amino}-6-pyrrolidinyl(3-pyridyl))-N-(3-pyridylmethyl)carboxamide], the IC50 came out at 234 nM.

For `N#Cc1cc(C(=O)NCc2cccnc2)c(NCCc2cccc(F)c2)nc1N1CCCC1` [Compound 49, (5-cyano-2-{[2-(3-fluorophenyl)ethyl]amino}-6-pyrrolidinyl(3-pyridyl))-N-(3-pyridylmethyl)carboxamide], the IC50 turned out to be 165 nM.

Take `CN(C)C(=O)N1CCN(c2ccc(C(=O)NCc3cccnc3)c(NCCc3cccc(F)c3)n2)CC1` [Compound 84, [4-(6-{[2-(3-fluorophenyl)ethyl]amino}-5-[N-(3-pyridylmethyl)carbamoyl](2-pyridyl))piperazinyl]-N,N-dimethylcarboxamide]: the 50% inhibitory concentration (IC50) was 48500 nM.

For `NCc1ncccc1CNC(=O)c1cc(F)c(N2CCCC2)nc1NCCc1cccc(F)c1` [Compound 78, N-{[2-(aminomethyl)(3-pyridyl)]methyl}(5-fluoro-2-{[2-(3-fluorophenyl)ethyl]amino}-6-pyrrolidinyl(3-pyridyl))carboxamide], the IC50 worked out at 25.9 nM.

In the case of `O=C(NCc1cccnc1)c1ccc(N2CC=CC2)nc1NCCc1cccc(F)c1` [Compound 29, (2-{[2-(3-fluorophenyl)ethyl]amino}-6-(3-pyrrolinyl)(3-pyridyl))-N-(3-pyridylmethyl)carboxamide], the IC50 worked out at 154 nM.

As to `O=C(NCc1cccnc1)c1ccc(N2CC[C@@H](O)C2)nc1NCCc1cccc(F)c1` [Compound 14, (6-((3R)-3-hydroxypyrrolidinyl)-2-{[2-(3-fluorophenyl)ethyl]amino}(3-pyridyl))-N-(3-pyridylmethyl)carboxamide], the concentration for half-maximal inhibition (IC50) worked out at 533 nM.

With `C[C@H](CNC(=O)c1cc(F)c(N2CCCC2)nc1NCCc1cccc(F)c1)NC(=O)CNC(=O)OC(C)(C)C` [Compound 63, N-{(1R)-2-[(5-fluoro-2-{[2-(3-fluorophenyl)ethyl]amino}-6-pyrrolidinyl(3-pyridyl))carbonylamino]-isopropyl}-2-[(tert-butoxy)carbonylamino]acetamide], the IC50 was determined as 15100 nM.

Consider `O=C1CC=C(c2ccc(C(=O)NCc3cccnc3)c(NCCc3cccc(F)c3)n2)CC1` [Compound 64, (2-{[2-(3-fluorophenyl)ethyl]amino}-6-(4-oxocyclohex-1-enyl)(3-pyridyl))-N-(3-pyridylmethyl)carboxamide], for which the IC50 worked out at 671 nM.

With `O=C(NCc1cccnc1)c1ccc(N2CC=CCC2)nc1NCCc1cccc(F)c1` [Compound 47, (2-{[2-(3-fluorophenyl)ethyl]amino}-6-(1,2,5,6-tetrahydropyridyl)(3-pyridyl))-N-(3-pyridylmethyl)carboxamide], the concentration for half-maximal inhibition (IC50) was 687 nM.

Take `O=C(NCc1cccnc1)c1ccc(N2CCSCC2)nc1NCCc1cccc(F)c1` [Compound 121, (2-{[2-(3-fluorophenyl)ethyl]amino}-6-(1,4-thiazaperhydroin-4-yl)(3-pyridyl))-N-(3-pyridylmethyl)carboxamide]: the IC50 worked out at 1570 nM.

As to `CC1CCN(c2ccc(C(=O)NCc3cccnc3)c(NCCc3ccccn3)n2)CC1` [Compound 34, {6-(4-methylpiperidyl)-2-[(2-(2-pyridyl)ethyl)amino](3-pyridyl)}-N-(3-pyridylmethyl)carboxamide], the concentration for half-maximal inhibition (IC50) turned out to be 14300 nM.
